In patent publication US10556929B2, “Cytotoxic T lymphocyte inducing immunogens for prevention treatment and diagnosis of dengue virus infection” (Emergex Vaccines Holdings Limited, priority 2011, dated 2020):

Experiments:
Assay type in all cases: cell-based, human
[1] = tested on: HepG2 cells infected with DV1-4 Thai isolates; assay: IFN-γ ELISpot, CTL vs HepG2 cells infected with DV1-4 Thai isolates; settings: HepG2 infected with DV1-4 Thai isolates, FIG. 4C-F
Procedure: (§1) Dengue virus serotype 2 (DV2) (strain-16681), as well as DV type 3 (DV3) (strain-16562), were propagated in Vero cells and collected at 4 days post infection (dpi). Titer was determined using a plaque assay in Vero cells. Thai isolates of all four DV serotypes were propagated. All infections were carried out at five MOI for lhr, after which, virus was removed and cells were incubated for additional 48-72 hrs.
(§2) Heparinized blood from healthy HLA-A2+ donors was purchased from Research Blood Components, LLC (Brighton, Mass.). Peripheral blood mononuclear cells (PBMC) were purified using differential centrifugation following standard methods. PBMC were used to generate peptide specific CTL as described previously (James S. Testa, et al. J Infect Dis 205(4): 647-655. (2012)).
(§3) Antigen stimulated interferon-γ (IFN-γ) release as a measure of CTL activation was assayed using an ELISPOT assay kit (BD-Pharmingen, San Jose, Calif.) according to the manufacturer's instructions. Results are presented as the number of interferon-γ producing cells per 1E6 PBMCs. Each assay was performed with PBMC from at least three different healthy HLA-A2+ donors. Error bars represent SEM of experimental replicates.
(§4) We tested CTLs generated against the 4 epitopes using targets infected with all four DV serotypes. We infected HepG2 cells (FIG. 4A) or JY cells (FIG. 4B) with DV1-4 Thai isolates and verified protein expression. […] In addition to HepG2 cells, we also tested professional APC JY cells, as targets.

[2] = tested on: JY cells infected with DV1-4 Thai isolates; assay: IFN-γ ELISpot, CTL vs JY cells infected with DV1-4 Thai isolates; settings: JY infected with DV1-4 Thai isolates, FIG. 4G-J
Procedure: as §1, §2, §3, §4

[3] = tested on: T2 cells loaded with the corresponding synthetic peptide; assay: IFN-γ ELISpot, CTL vs peptide-pulsed T2 cells; settings: CTL from HLA-A2+ healthy donor PBMC generated with synthetic peptide, overnight ELISpot, FIG. 3A-D
Procedure: as §2, §3
In order to characterize the functionality of the identified DV epitopes, we generated cytotoxic T cells from HLA-A2+ healthy donors using synthetic peptides corresponding to the identified epitopes. The cultures were tested in overnight ELISpot assays to measure IFNγ release from activated CTLs. […] Next, to confirm CTL activation against DV-infected targets, JY and HepG2 cells were infected with both DV2 and DV3 virus and used as targets in CTL ELISpot assays. […] In addition, K562 cells, a known NK cell target, were used as targets to measure non-specific IFNγ secretion.

[4] = tested on: JY and HepG2 cells infected with DV2 and DV3 virus; assay: IFN-γ ELISpot, CTL vs DV2/DV3-infected JY and HepG2 cells; settings: FIG. 3E-F
Procedure: as §1, §2, §3
In order to characterize the functionality of the identified DV epitopes, we generated cytotoxic T cells from HLA-A2+ healthy donors using synthetic peptides corresponding to the identified epitopes. […]

With “KLAEAIFKL (listed as Homo sapiens) [P1-KLA]” the “activation of epitope-specific CTL against infected HepG2 targets” value (from here on “activation of epitope-specific CTL”) [1] was “activated against all four serotypes, although not to the same degree”, the “DV serotypes of infected targets recognized by peptide-specific CTL” value [2] was “recognized only DV2-infected targets” and the “activation of peptide-specific CTL by infected JY targets” value (“activation of peptide-specific CTL” for short) [2] was “most infected targets activate peptide-specific CTL”. The “recognition of peptide-loaded targets by peptide-specific CTL (IFNγ release)” value (“recognition of peptide-loaded targets” for short) [3] was “recognize T2 cells loaded with the corresponding synthetic peptide”.
“VTLLCLIPTV (listed as Homo sapiens) [P2-VTL]” was tested, and the “CTL activation (IFNγ secretion) against DV-infected targets” value [4] was “all DV-infected cells activated CTL to secrete IFNγ”, the “activation of epitope-specific CTL” value [1] was “activated against all four serotypes, although not to the same degree” and the “DV serotypes of infected targets recognized by peptide-specific CTL” value [2] was “recognized only DV2-infected targets”. The “activation of peptide-specific CTL” value [2] was “most infected targets activate peptide-specific CTL” and the “recognition of peptide-loaded targets” value [3] was “recognize T2 cells loaded with the corresponding synthetic peptide”.
With “NIQTAINQV (listed as Homo sapiens) [P4-NIQ]” the “activation of epitope-specific CTL” value [1] was “activated against all four serotypes, although not to the same degree”, the “activation of peptide-specific CTL” value [2] was “most infected targets activate peptide-specific CTL” and the “recognition of peptide-loaded targets” value [3] was “recognize T2 cells loaded with the corresponding synthetic peptide”.
For “TITEEIAVQ (listed as Homo sapiens) [P3-TIT]”, the “CTL activation (IFNγ secretion) against DV-infected targets” value [4] was “all DV-infected cells activated CTL to secrete IFNγ”, the “activation of epitope-specific CTL” value [1] was “activated against all four serotypes, although not to the same degree” and the “activation of peptide-specific CTL” value [2] was “most infected targets activate peptide-specific CTL”. For the same sequence, the “recognition of peptide-loaded targets” value [3] was “recognize T2 cells loaded with the corresponding synthetic peptide”.
